For the assay, the target named is T1, PD-1/PD-L1 interaction (PE-labeled human PD-L1-Ig binding to Jurkat cell line over-expressing human PD-1) (Homo sapiens, UniProt Q15116).
T1 construct: expressed in transfected cells; host or cells: Jurkat
Description: Jurkat-PD-1 Cell Binding High-Content Screening Assay (CBA). A digest of the protocol:
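Read-out: high-content imaging of cell-bound PE fluorescence, with Hoechst 33342 nuclear counterstain after paraformaldehyde fixation. Before labeled ligand (20 nM final, 1 h) was added, compound sat on the cells for 2 h at 37 °C in DMEM/10% FCS.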

The mark [1] stands for this setting: Jurkat-hPD-1 cells, PE-labeled PD-L1-Ig 20 nM final; read-out: Jurkat HPD1 PDL1 IC50.
The mark [2] stands for this setting: PE-labeled PD-L1-Ig 20 nM final, Jurkat-hPD-1 cells; read-out: Jurkat HPD1 PDL1 IC50.

Drawing on patent US20260070945A1, “MACROCYCLIC IMMUNOMODULATORS” (Bristol-Myers Squibb Company, priority 2022, published 2026), this text covers IC50 for five compounds.

Where two headings read alike, the source gives them in different places. Where a SMILES comes first, the peptide text is derived from it. Bridges are numbered along the chain shown (N, C = ends). [ ]: non-standard residue; d: D form. The star is where a group is joined. ξ: configuration not given here. Phe(4-COOH) = N[C@@H](Cc1ccc(C(=O)O)cc1)C(=O)O; Bip = N[C@@H](Cc1ccc(-c2ccccc2)cc1)C(=O)O; Phe(3-Me) = Cc1cccc(C[C@H](N)C(=O)O)c1; Val(3-OH) = CC(C)(O)[C@H](N)C(=O)O; Cha = N[C@@H](CC1CCCCC1)C(=O)O; Thr(3ξ) = CC(O)[C@H](N)C(=O)O; 12Ado = NCCCCCCCCCCCC(=O)O; Carboxymethyl = O=C(O)C*; NMeA = CN[C@@H](C)C(=O)O; Aun = NCCCCCCCCCCC(=O)O; Dab = NCC[C@H](N)C(=O)O; AEEA = NCCOCCOCC(=O)O

T1 sequence (Q15116 25-288): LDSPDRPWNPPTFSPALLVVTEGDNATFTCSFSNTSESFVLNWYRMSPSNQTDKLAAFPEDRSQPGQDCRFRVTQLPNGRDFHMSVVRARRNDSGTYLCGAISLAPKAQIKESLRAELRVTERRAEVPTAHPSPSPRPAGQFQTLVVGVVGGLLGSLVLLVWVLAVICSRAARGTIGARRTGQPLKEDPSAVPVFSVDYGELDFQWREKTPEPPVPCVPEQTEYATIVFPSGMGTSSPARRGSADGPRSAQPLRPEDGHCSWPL

Consider `CC(C)C[C@@H]1NC(=O)[C@H](Cc2c[nH]c3ccccc23)NC(=O)[C@H](CC(=O)O)NC(=O)[C@H](Cc2ccc(C(=O)O)cc2)NC(=O)[C@H](Cc2ccc(OCC(=O)O)cc2)NC(=O)CSC[C@@H](C(=O)N[C@@H](CC(N)=O)C(=O)NCCOCCOCC(=O)NCCCCCCCCCCC(=O)O)NC(=O)[C@H](CO)NC(=O)[C@H](C(C)(C)O)NC(=O)[C@H](CC2CCCCC2)NC(=O)[C@H](CCN)NC(=O)[C@@H](CC(C)C)NC(=O)[C@H](C)N(C)C(=O)[C@H](C(C)C)NC(=O)[C@H](Cc2ccc(-c3ccccc3)cc2)NC1=O` [Example 1413] ({CH2CO}-Y(Carboxymethyl)[Phe(4-COOH)]DWL[Bip]V[NMeA][dL][Dab][Cha][Val(3-OH)]SCN[AEEA][Aun]-OH; thioether N-14), for which the IC50 – broadly, the concentration that gives 50% inhibition – under setting [1] worked out at 18.1 nM.
Same read-out and setting: the value for `CC(C)C[C@H]1NC(=O)[C@H](C)N(C)C(=O)[C@H](C(C)C)NC(=O)[C@H](Cc2ccc(-c3ccccc3)cc2)NC(=O)[C@H](C(C)C)NC(=O)[C@H](Cc2c[nH]c3ccccc23)NC(=O)[C@H](CC(=O)O)NC(=O)[C@H](Cc2ccc(C(=O)O)cc2)NC(=O)[C@H](Cc2ccc(OCC(=O)O)cc2)NC(=O)CSC[C@@H](C(=O)N[C@@H](CCCCN)C(=O)NCCOCCOCC(=O)NCCCCCCCCCCC(=O)O)NC(=O)[C@H](C(C)O)NC(=O)[C@H](C(C)C)NC(=O)[C@H](CC2CCCCC2)NC(=O)[C@H](CCN)NC1=O` (stereo partly drawn) [Example 2109] ({CH2CO}-Y(Carboxymethyl)[Phe(4-COOH)]DWV[Bip]V[NMeA][dL][Dab][Cha]V[Thr(3ξ)]CK[AEEA][Aun]-OH; thioether N-14) was 10.8 nM.
As to `Cc1cccc(C[C@@H]2NC(=O)[C@H](CC(=O)O)NC(=O)[C@H](Cc3ccc(OCC(=O)O)cc3)NC(=O)[C@H](C(C)O)NC(=O)CSC[C@@H](C(=O)N[C@@H](CCN)C(=O)NCCCCCCCCCCC(=O)O)NC(=O)[C@H](CO)NC(=O)[C@H](C(C)(C)O)NC(=O)[C@H](CC3CCCCC3)NC(=O)[C@H](CCN)NC(=O)[C@@H](CC(C)C)NC(=O)[C@H](C)N(C)C(=O)[C@H](Cc3ccc(OCC(=O)O)cc3)NC(=O)[C@H](Cc3ccc(-c4ccccc4)cc3)NC(=O)[C@H](Cc3ccc(C(=O)O)cc3)NC2=O)c1` (stereo partly drawn) [Example 2430] ({CH2CO}-[Thr(3ξ)]Y(Carboxymethyl)D[Phe(3-Me)][Phe(4-COOH)][Bip]Y(Carboxymethyl)[NMeA][dL][Dab][Cha][Val(3-OH)]SC[Dab][Aun]-OH; thioether N-14), under setting [2], the IC50 was found to be 34.2 nM.
With `CC(=O)NCCCC[C@@H]1NC(=O)[C@H](Cc2ccc(-c3ccccc3)cc2)NC(=O)[C@H](Cc2ccc(O)cc2)NC(=O)[C@H](Cc2cccc(C)c2)NC(=O)[C@H](CC(=O)O)NC(=O)[C@H](Cc2ccc(OCC(=O)O)cc2)NC(=O)[C@H](CCN)NC(=O)CSC[C@@H](C(=O)NCCOCCOCC(=O)NCCCCCCCCCCC(=O)O)NC(=O)[C@H](C(C)O)NC(=O)[C@H](C(C)C)NC(=O)[C@H](CC2CCCCC2)NC(=O)[C@H](CCN)NC(=O)[C@@H](CC(C)C)NC(=O)[C@H](C)N(C)C1=O` (stereo partly drawn) [Example 2419] ({CH2CO}-[Dab]Y(Carboxymethyl)D[Phe(3-Me)]Y[Bip]K(Ac)[NMeA][dL][Dab][Cha]V[Thr(3ξ)]C[AEEA][Aun]-OH; thioether N-14), the IC50 under setting [1] was 52.4 nM.
For `Cc1cccc(C[C@@H]2NC(=O)[C@H](CC(=O)O)NC(=O)[C@H](Cc3ccc(OCC(=O)O)cc3)NC(=O)[C@H]([C@@H](C)O)NC(=O)CSC[C@@H](C(=O)N[C@@H](CCN)C(=O)NCCCCCCCCCCCC(=O)NCCCCCCCCCCC(=O)O)NC(=O)[C@H](CCC(=O)O)NC(=O)[C@H](C(C)C)NC(=O)[C@H](CC3CCCCC3)NC(=O)[C@H](CCN)NC(=O)[C@@H](CC(C)C)NC(=O)[C@H](C)N(C)C(=O)[C@H](Cc3ccc(OCC(=O)O)cc3)NC(=O)[C@H](Cc3ccc(-c4ccccc4)cc3)NC(=O)[C@H](Cc3ccc(OCC(=O)O)cc3)NC2=O)c1` [Example 2679] ({CH2CO}-TY(Carboxymethyl)D[Phe(3-Me)]Y(Carboxymethyl)[Bip]Y(Carboxymethyl)[NMeA][dL][Dab][Cha]VEC[Dab][12Ado][Aun]-OH; thioether N-14), the half-inhibitory concentration (IC50) under setting [2] worked out at 12.2 nM.
